Laboratory results as given in ChEMBL document CHEMBL1201862, “PubChem BioAssay data set” (2004).
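Exposure lasted 48 hours, with cells grown in 96-well plates and compounds tested at five concentrations. GI50 = concentration required for 50% inhibition of growth.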 The source made the active and inactive calls. Cut-off read from the data, not from the text of the source: active = GI50 up to about 1.1 µM and inactive = higher.

What was measured:
Assay in all cases: NCI tumour cell line growth inhibition, 48 h
[1] = tested on: HOP-92
[2] = tested on: SNB-19
[3] = tested on: A549
[4] = tested on: HCT-116
[5] = tested on: UO-31
[6] = tested on: OVCAR-8
[7] = tested on: RXF 393
[8] = tested on: SK-MEL-2
[9] = tested on: OVCAR-4
[10] = tested on: SK-MEL-5
[11] = tested on: CAKI-1
[12] = tested on: ACHN
[13] = tested on: SNB-75
[14] = tested on: SF-268
[15] = tested on: DMS-273
[16] = tested on: OVCAR-3
[17] = tested on: SF-295
[18] = tested on: DLD-1
[19] = tested on: SR
[20] = tested on: KM-20L2
[21] = tested on: SK-OV-3
[22] = tested on: HCC 2998
[23] = tested on: LOX IMVI
[24] = tested on: TK-10
[25] = tested on: IGROV-1
[26] = tested on: HL-60
[27] = tested on: KM12
[28] = tested on: COLO 205
[29] = tested on: HCT-15
[30] = tested on: NCI-H522
[31] = tested on: SN12C
[32] = tested on: NCI-H226
[33] = tested on: Malme-3M
[34] = tested on: SF-539
[35] = tested on: RXF 631
[36] = tested on: HOP-18
[37] = tested on: M19-MEL
[38] = tested on: UACC-62
[39] = tested on: NCI-H23
[40] = tested on: UACC-257
[41] = tested on: EKVX
[42] = tested on: LXFL 529
[43] = tested on: HOP-62
[44] = tested on: 786-0
[45] = tested on: M14
[46] = tested on: XF498
[47] = tested on: SW-620
[48] = tested on: HT-29
[49] = tested on: NCI-H460
[50] = tested on: SK-MEL-28
[51] = tested on: MOLT-4
[52] = tested on: CCRF-CEM
[53] = tested on: RPMI-8226
[54] = tested on: SNB-78
[55] = tested on: U-251
[56] = tested on: K562
[57] = tested on: OVCAR-5
[58] = tested on: A498
[59] = tested on: DMS-114

## C=C(C)CC(C)(c1cc2ccccc2n1C)N1CCOCC1 (configuration not stated)
[1]
  GI50: 14.8 µM (inactive)
[2]
  GI50: > 100 µM (inactive)
[3]
  GI50: 59.2 µM (inactive)
[4]
  GI50: 60.1 µM (inactive)
[5]
  GI50: 22.9 µM (inactive)
[6]
  GI50: 67.1 µM (inactive)
[7]
  GI50: 65.5 µM (inactive)
[8]
  GI50: > 100 µM (inactive)
[9]
  GI50: > 100 µM (inactive)
[10]
  GI50: 42.2 µM (inactive)
[11]
  GI50: 80.5 µM (inactive)
[12]
  GI50: 62.2 µM (inactive)
[13]
  GI50: > 100 µM (inactive)
[14]
  GI50: 41.5 µM (inactive)
[15]
  GI50: 61 µM (inactive)
[16]
  GI50: 66.5 µM (inactive)
[17]
  GI50: > 100 µM (inactive)
[18]
  GI50: 60.5 µM (inactive)
[19]
  GI50: 69 µM (inactive)
[20]
  GI50: > 100 µM (inactive)
[21]
  GI50: > 100 µM (inactive)
[22]
  GI50: > 100 µM (inactive)
[23]
  GI50: > 100 µM (inactive)
[24]
  GI50: > 100 µM (inactive)
[25]
  GI50: 75.7 µM (inactive)
[26]
  GI50: 57 µM (inactive)
[27]
  GI50: 38.4 µM (inactive)
[28]
  GI50: > 100 µM (inactive)
[29]
  GI50: 75.7 µM
[30]
  GI50: 10.6 µM (inactive)
[31]
  GI50: 93.5 µM (inactive)
[32]
  GI50: 69.8 µM (inactive)
[33]
  GI50: > 100 µM (inactive)
[34]
  GI50: > 100 µM (inactive)
[35]
  GI50: 42.4 µM (inactive)
[36]
  GI50: > 100 µM (inactive)
[37]
  GI50: > 100 µM (inactive)
[38]
  GI50: 45.1 µM (inactive)
[39]
  GI50: 55.1 µM (inactive)
[40]
  GI50: 95.1 µM (inactive)
[41]
  GI50: 36.4 µM (inactive)
[42]
  GI50: 53.7 µM (inactive)
[43]
  GI50: > 100 µM (inactive)
[44]
  GI50: > 100 µM (inactive)
[45]
  GI50: 70 µM (inactive)
[46]
  GI50: 50.6 µM (inactive)
[47]
  GI50: > 100 µM (inactive)
[48]
  GI50: > 100 µM (inactive)
[49]
  GI50: 60.8 µM (inactive)
[50]
  GI50: > 100 µM (inactive)
[51]
  GI50: 40.3 µM (inactive)
[52]
  GI50: 44.5 µM (inactive)

## Cc1cc(C)c(-c2noc(-c3ccc(Cl)cc3)c2C2=NCCCN2)c(C)c1
[53]
  GI50: 16.2 µM (inactive)
[2]
  GI50: 21.3 µM (inactive)
[3]
  GI50: 24 µM (inactive)
[4]
  GI50: 4.57 µM (inactive)
[5]
  GI50: 16.2 µM (inactive)
[6]
  GI50: 26.7 µM (inactive)
[7]
  GI50: 7.1 µM (inactive)
[8]
  GI50: 20.9 µM (inactive)
[9]
  GI50: 97.1 µM (inactive)
[10]
  GI50: 10.4 µM (inactive)
[11]
  GI50: > 100 µM (inactive)
[12]
  GI50: 17.6 µM (inactive)
[14]
  GI50: 11.3 µM (inactive)
[16]
  GI50: 28 µM (inactive)
[17]
  GI50: 11.2 µM (inactive)
[18]
  GI50: 35.8 µM (inactive)
[19]
  GI50: 26.5 µM (inactive)
[20]
  GI50: 21.9 µM (inactive)
[21]
  GI50: 18.4 µM (inactive)
[22]
  GI50: 15.1 µM (inactive)
[23]
  GI50: 16.2 µM (inactive)
[25]
  GI50: 32.1 µM (inactive)
[26]
  GI50: 13.2 µM (inactive)
[27]
  GI50: 23 µM (inactive)
[28]
  GI50: 13.8 µM (inactive)
[29]
  GI50: 18.5 µM
[30]
  GI50: 20 µM (inactive)
[31]
  GI50: 19.1 µM (inactive)
[32]
  GI50: 29.9 µM (inactive)
[54]
  GI50: 14.8 µM (inactive)
[33]
  GI50: 19.4 µM (inactive)
[34]
  GI50: 14.1 µM (inactive)
[35]
  GI50: 25.1 µM (inactive)
[55]
  GI50: 7.57 µM (inactive)
[36]
  GI50: 27.9 µM (inactive)
[37]
  GI50: 36.1 µM (inactive)
[38]
  GI50: 16.3 µM (inactive)
[56]
  GI50: 14.8 µM (inactive)
[39]
  GI50: 17.9 µM (inactive)
[40]
  GI50: 15.1 µM (inactive)
[41]
  GI50: 18 µM (inactive)
[42]
  GI50: 32.2 µM (inactive)
[43]
  GI50: 21.8 µM (inactive)
[57]
  GI50: 31.6 µM (inactive)
[44]
  GI50: 7.45 µM (inactive)
[45]
  GI50: 2.47 µM (inactive)
[46]
  GI50: 12.2 µM (inactive)
[47]
  GI50: 23.4 µM (inactive)
[48]
  GI50: 13.5 µM (inactive)
[49]
  GI50: 11.7 µM (inactive)
[50]
  GI50: 14.8 µM (inactive)
[51]
  GI50: 16.8 µM (inactive)
[52]
  GI50: 20.6 µM (inactive)

## CCc1c(C)[nH]c2c1/C(=N/N=C1\CCCc3[nH]c(C)c(CC)c31)CCC2
[1]
  GI50: 14.5 µM (inactive)
[53]
  GI50: 7.67 µM (inactive)
[2]
  GI50: 41.4 µM (inactive)
[3]
  GI50: 27.9 µM (inactive)
[4]
  GI50: 16.9 µM (inactive)
[5]
  GI50: 14.5 µM (inactive)
[6]
  GI50: 25.8 µM (inactive)
[7]
  GI50: 22.6 µM (inactive)
[8]
  GI50: > 100 µM (inactive)
[9]
  GI50: 18.1 µM (inactive)
[10]
  GI50: 14.2 µM (inactive)
[11]
  GI50: 29.4 µM (inactive)
[12]
  GI50: 18.6 µM (inactive)
[13]
  GI50: 20.8 µM (inactive)
[14]
  GI50: 19.3 µM (inactive)
[15]
  GI50: 17.4 µM (inactive)
[16]
  GI50: 14.5 µM (inactive)
[17]
  GI50: 20.1 µM (inactive)
[18]
  GI50: > 100 µM (inactive)
[20]
  GI50: 27 µM (inactive)
[21]
  GI50: 30.8 µM (inactive)
[22]
  GI50: > 100 µM (inactive)
[23]
  GI50: 20.9 µM (inactive)
[24]
  GI50: 49.1 µM (inactive)
[25]
  GI50: 20 µM (inactive)
[26]
  GI50: 11.9 µM (inactive)
[27]
  GI50: 15.7 µM (inactive)
[28]
  GI50: 17.9 µM (inactive)
[58]
  GI50: 25.6 µM (inactive)
[29]
  GI50: 19.4 µM
[30]
  GI50: 14.3 µM (inactive)
[31]
  GI50: 29.2 µM (inactive)
[32]
  GI50: 17.6 µM (inactive)
[54]
  GI50: 27.4 µM (inactive)
[33]
  GI50: > 100 µM (inactive)
[34]
  GI50: 28.2 µM (inactive)
[35]
  GI50: 22.5 µM (inactive)
[55]
  GI50: 17 µM (inactive)
[37]
  GI50: 20.6 µM (inactive)
[38]
  GI50: 18.5 µM (inactive)
[56]
  GI50: 16.7 µM (inactive)
[39]
  GI50: 18.5 µM (inactive)
[59]
  GI50: 14.1 µM (inactive)
[40]
  GI50: 17.5 µM (inactive)
[41]
  GI50: 33 µM (inactive)
[42]
  GI50: 13.8 µM (inactive)
[43]
  GI50: > 100 µM (inactive)
[57]
  GI50: 25.6 µM (inactive)
[44]
  GI50: > 100 µM (inactive)
[45]
  GI50: 20.7 µM (inactive)
[46]
  GI50: 18.2 µM (inactive)
[47]
  GI50: 28.5 µM (inactive)
[48]
  GI50: 27.4 µM (inactive)
[49]
  GI50: 18 µM (inactive)
[50]
  GI50: 16.7 µM (inactive)
[51]
  GI50: 12.8 µM (inactive)
[52]
  GI50: 19.2 µM (inactive)
